Source: ChEMBL document CHEMBL1933004, “Novel (S)-1,2,3,4-tetrahydroisoquinoline-3-carboxylic acids: peroxisome proliferator-activated receptor γ selective agonists with protein-tyrosine phosphatase 1B inhibition” (Bioorg Med Chem, 2012)

Legend:
[1] = target: T1, Peroxisome proliferator-activated receptor alpha (Homo sapiens, UniProt Q07869); assay: Transactivation of human full length PPARalpha expressed in COS1 cells co-transfected with RXRalpha after 24 hrs by luciferase reporter gene assay; format: cell-based, COS-1
T1 sequence (Q07869 whole entry): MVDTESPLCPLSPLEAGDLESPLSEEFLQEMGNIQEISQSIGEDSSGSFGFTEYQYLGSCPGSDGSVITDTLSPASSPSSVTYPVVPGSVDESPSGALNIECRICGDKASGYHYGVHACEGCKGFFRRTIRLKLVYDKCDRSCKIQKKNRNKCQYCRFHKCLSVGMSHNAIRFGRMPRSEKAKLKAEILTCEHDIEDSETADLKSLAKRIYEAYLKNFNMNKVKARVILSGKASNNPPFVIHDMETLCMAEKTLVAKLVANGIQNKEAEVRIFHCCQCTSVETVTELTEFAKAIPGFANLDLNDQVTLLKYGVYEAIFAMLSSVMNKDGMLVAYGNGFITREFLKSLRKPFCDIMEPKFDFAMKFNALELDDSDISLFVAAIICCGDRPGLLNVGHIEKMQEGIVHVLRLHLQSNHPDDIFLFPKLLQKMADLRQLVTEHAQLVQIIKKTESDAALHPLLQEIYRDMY

[2] = target: T2, Peroxisome proliferator-activated receptor gamma (Homo sapiens, UniProt P37231); assay: Transactivation of human full length PPARgamma expressed in COS1 cells co-transfected with RXRalpha after 24 hrs by luciferase reporter gene assay; format: cell-based, COS-1
T2 sequence (P37231 whole entry): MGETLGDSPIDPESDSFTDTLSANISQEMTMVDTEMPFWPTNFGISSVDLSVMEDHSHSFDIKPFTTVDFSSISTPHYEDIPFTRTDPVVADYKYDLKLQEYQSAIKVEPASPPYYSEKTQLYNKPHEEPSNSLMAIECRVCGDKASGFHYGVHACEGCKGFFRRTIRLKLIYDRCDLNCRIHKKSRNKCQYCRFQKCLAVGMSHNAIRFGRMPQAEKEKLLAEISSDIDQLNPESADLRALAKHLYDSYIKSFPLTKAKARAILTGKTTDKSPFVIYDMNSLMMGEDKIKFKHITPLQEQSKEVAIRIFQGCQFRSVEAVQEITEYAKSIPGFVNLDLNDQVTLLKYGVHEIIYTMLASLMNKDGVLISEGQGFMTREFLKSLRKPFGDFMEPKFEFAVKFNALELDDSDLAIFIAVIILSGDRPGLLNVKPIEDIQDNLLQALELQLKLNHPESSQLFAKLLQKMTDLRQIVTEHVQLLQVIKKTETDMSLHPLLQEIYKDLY

[3] = target: T3, Peroxisome proliferator-activated receptor gamma (Homo sapiens) (UniProt P37231); assay: Transactivation of human full length PPARgamma expressed in COS1 cells co-transfected with RXRalpha after 24 hrs by luciferase reporter gene assay relative to farglitazar; format: cell-based; details: COS-1
T3 sequence (whole entry): T2 sequence (P37231 whole entry)

Mus musculus = assay: Hypoglycemic activity in diabetic KK-Ay mouse model assessed as decrease in glucose level at 10 mg/kg, po qd for 4 days relative to untreated control; format: functional; set-up: scale not given: the % may be the effect or the level left
[4] = target: T4, Peroxisome proliferator-activated receptor alpha (Homo sapiens) (UniProt Q07869); assay: Transactivation of human full length PPARalpha expressed in COS1 cells co-transfected with RXRalpha after 24 hrs by luciferase reporter gene assay relative to WY14643; format: cell-based; details: COS-1
T4 sequence (whole entry): T1 sequence (Q07869 whole entry)

[5] = target: T5, Tyrosine-protein phosphatase non-receptor type 1 (Homo sapiens, UniProt P18031); assay: Inhibition of PTB1B using pNPP as substrate after 30 mins
T5 sequence (P18031 whole entry): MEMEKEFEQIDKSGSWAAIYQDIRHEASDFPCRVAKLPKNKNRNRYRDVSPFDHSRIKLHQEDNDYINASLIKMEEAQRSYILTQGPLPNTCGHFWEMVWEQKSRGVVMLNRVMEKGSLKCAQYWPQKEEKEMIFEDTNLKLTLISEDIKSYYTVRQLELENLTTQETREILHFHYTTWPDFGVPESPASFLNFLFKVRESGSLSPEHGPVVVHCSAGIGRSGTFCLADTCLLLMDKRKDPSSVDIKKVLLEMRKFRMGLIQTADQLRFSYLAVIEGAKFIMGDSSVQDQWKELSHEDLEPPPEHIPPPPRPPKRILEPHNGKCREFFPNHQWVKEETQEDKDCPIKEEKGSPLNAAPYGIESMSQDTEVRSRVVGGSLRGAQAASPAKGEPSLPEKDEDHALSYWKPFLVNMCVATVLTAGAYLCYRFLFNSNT

[6] = target: T3, Peroxisome proliferator-activated receptor gamma (Homo sapiens); assay: Ratio of rosiglitazone EC50 to compound EC50 for human full length PPARgamma

Compound	EC50 [1]	EC50 [2]	Emax [3]	Activity (Mus musculus)	Emax [4]	IC50 [5]	Ratio EC50 [6]
CC(C)(C)N.CC(C)=C/C=C/C(=O)N1Cc2cc(OCCc3nc(/C=C/CCC(C)C)oc3C)ccc2C[C@H]1C(=O)O	100 nM	30 nM	85%	44%	64%	950 nM	
C=CCCC(=O)N1Cc2cc(OCCc3nc(/C=C/CCC(C)C)oc3C)ccc2C[C@H]1C(=O)O.CC(C)(C)N		40 nM	105%	45%	< 50%	1690 nM	
C=CCCCC(=O)N1Cc2cc(OCCc3nc(/C=C/CCC(C)C)oc3C)ccc2C[C@H]1C(=O)O.CC(C)(C)N		50 nM	106%	22%	< 50%	1430 nM	
CC(C)(C)N.Cc1oc(/C=C/CCC(C)C)nc1CCOc1ccc2c(c1)CN(C(=O)/C=C/C=C/CO)[C@H](C(=O)O)C2			61%	14%	< 50%	3200 nM	
C/C=C/C=C/C(=O)N1Cc2cc(OCCc3nc(/C=C/C(C)CCC)oc3C)ccc2C[C@H]1C(=O)O.CC(C)(C)N (stereo partly drawn)		310 nM	82%	71%	< 50%	1410 nM	
CC(C)(C)N.CCC/C=C/C(=O)N1Cc2cc(OCCc3nc(/C=C/CCC(C)C)oc3C)ccc2C[C@H]1C(=O)O		30 nM	96%	50%	< 50%	1180 nM	
CC(C)(C)N.CCOCCC(=O)N1Cc2cc(OCCc3nc(/C=C/CCC(C)C)oc3C)ccc2C[C@H]1C(=O)O		70 nM	86%	-13%	< 50%	3350 nM	
CC(C)(C)N.CCOC/C=C/C(=O)N1Cc2cc(OCCc3nc(/C=C/CCC(C)C)oc3C)ccc2C[C@H]1C(=O)O		90 nM	108%	3%	< 50%	3800 nM	
C/C=C/C=C(\C)C(=O)N1Cc2cc(OCCc3nc(/C=C/CCC(C)C)oc3C)ccc2C[C@H]1C(=O)O.CC(C)(C)N		50 nM	98%	21%	< 50%	2030 nM	
CC(C)(C)N.Cc1oc(/C=C/CCC(C)C)nc1CCOc1ccc2c(c1)CN(C(=O)/C=C/c1ccco1)[C@H](C(=O)O)C2		70 nM	102%	29%	< 50%	570 nM	
CC(C)(C)N.CCCCCC(=O)N1Cc2cc(OCCc3nc(/C=C/CCC(C)C)oc3C)ccc2C[C@H]1C(=O)O		20 nM	94%	30%	< 50%	940 nM	
C/C=C/C=C/C(=O)N1Cc2cc(OCCc3nc(/C=C/CC(C)(C)C)oc3C)ccc2C[C@H]1C(=O)O.CC(C)(C)N		160 nM	92%	39%	< 50%	1950 nM	
C/C=C/C=C/C(=O)N1Cc2cc(OCCc3nc(/C=C/C(C)C)oc3C)ccc2C[C@H]1C(=O)O.CC(C)(C)N	300 nM	670 nM	104%	38%	62%	2200 nM	
CC(C)(C)N.CCC(O)/C=C/C(=O)N1Cc2cc(OCCc3nc(/C=C/CCC(C)C)oc3C)ccc2C[C@H]1C(=O)O (stereo partly drawn)		240 nM	104%	19%	< 50%	6200 nM	
C/C=C/C=C/C(=O)N1Cc2cc(OCCc3nc(CCCCC(C)C)oc3C)ccc2C[C@H]1C(=O)O.CC(C)(C)N		110 nM	89%	17%	< 50%	1150 nM	
C/C=C/C=C/C(=O)N1Cc2cc(OCCc3nc(/C=C/C(C)(C)C)oc3C)ccc2C[C@H]1C(=O)O.CC(C)(C)N		540 nM	97%	23%	< 50%	2250 nM	
CC(C)(C)N.CCO/C=C/C(=O)N1Cc2cc(OCCc3nc(/C=C/CCC(C)C)oc3C)ccc2C[C@H]1C(=O)O		20 nM	101%	33%	< 50%	2550 nM	
C/C=C/C=C/C(=O)N1Cc2cc(OCCc3nc(/C=C/C(CC)CC)oc3C)ccc2C[C@H]1C(=O)O.CC(C)(C)N		760 nM	90%	18%	66%	1300 nM	
CC(C)(C)N.Cc1oc(/C=C/CCC(C)C)nc1CCOc1ccc2c(c1)CN(C(=O)/C=C/c1cccs1)[C@H](C(=O)O)C2		40 nM	99%	45%	< 50%	1050 nM	
C/C=C/C=C/C(=O)N1Cc2cc(OCCc3nc(/C=C/CC(C)C)oc3C)ccc2C[C@H]1C(=O)O.CC(C)(C)N	240 nM	160 nM	103%	58%	81%	2000 nM	
C/C=C/C=C/C(=O)N1Cc2cc(OCCc3nc(/C(=C/C)CC)oc3C)ccc2C[C@H]1C(=O)O.CC(C)(C)N		350 nM	91%	47%	< 50%	5600 nM	
CC(C)(C)N.Cc1oc(/C=C/CCC(C)C)nc1CCOc1ccc2c(c1)CN(C(=O)/C=C/C1CC1)[C@H](C(=O)O)C2		70 nM	84%	27%	< 50%	1050 nM	
C/C=C/C=C/C(=O)N1Cc2cc(OCCc3nc(/C(C)=C/CCC(C)C)oc3C)ccc2C[C@H]1C(=O)O.CC(C)(C)N		20 nM	119%	56%	< 50%	1020 nM	4
C/C=C/C=C/C(=O)N1Cc2cc(OCCc3nc(/C=C/C(C)(C)CC)oc3C)ccc2C[C@H]1C(=O)O.CC(C)(C)N		760 nM	77%	16%	< 50%	1200 nM	
C/C=C/C=C/C(=O)N1Cc2cc(OCCc3nc(/C(C)=C/CC)oc3C)ccc2C[C@H]1C(=O)O.CC(C)(C)N		120 nM	96%	40%	< 50%	4400 nM	
